How the values were obtained:
[1] = system: HCT-116; experiment: cells; details: Homo sapiens, HCT-116, 72 h
Description: Antiproliferative activity against human HCT116 cells after 72 hrs by ViaLight assay

[2] = system: MDA-MB-231; experiment: cells; details: Homo sapiens, MDA-MB-231, 72 h
Description: Antiproliferative activity against human MDA-MB-231 cells after 72 hrs by ViaLight assay

[3] = system: K562; experiment: cells; details: Homo sapiens, K562, 72 h
Description: Antiproliferative activity against human K562 cells after 72 hrs by ViaLight assay

[4] = system: CAKI-1; experiment: cells; details: Homo sapiens, CAKI-1, 72 h
Description: Antiproliferative activity against human Caki1 cells after 72 hrs by ViaLight assay

[5] = system: A549; experiment: cells; details: Homo sapiens, A549, 72 h
Description: Antiproliferative activity against human A549 cells after 72 hrs by ViaLight assay

[6] = system: MDA-MB-468; experiment: cells; details: Homo sapiens, MDA-MB-468, 72 h, read-out: pGI50 (converted)
Description: Antiproliferative activity against human MDA-MB-468 cells after 72 hrs by ViaLight assay

[7] = system: LOX IMVI; experiment: cells; details: Homo sapiens, 72 h
Description: Antiproliferative activity against human LOXIMVI cells after 72 hrs by ViaLight assay

[8] = system: ACHN; experiment: cells; details: Homo sapiens, 72 h
Description: Antiproliferative activity against human ACHN cells after 72 hrs by ViaLight assay

[9] = system: SNB-75; experiment: cells; details: Homo sapiens, SNB-75, 72 h
Description: Antiproliferative activity against human SNB75 cells after 72 hrs by ViaLight assay

[10] = system: SNB-19; experiment: cells; details: Homo sapiens, SNB-19, 72 h
Description: Antiproliferative activity against human SNB19 cells after 72 hrs by ViaLight assay

[11] = system: MCF7; experiment: cells; details: Homo sapiens, MCF7, 72 h
Description: Antiproliferative activity against human MCF7 cells after 72 hrs by ViaLight assay

[12] = system: OVCAR-4; experiment: cells; details: Homo sapiens, OVCAR-4, 72 h
Description: Antiproliferative activity against human OVCAR4 cells after 72 hrs by ViaLight assay

[13] = system: HCT-15; experiment: cells; details: Homo sapiens, HCT-15, 72 h
Description: Antiproliferative activity against human HCT15 cells after 72 hrs by ViaLight assay

[14] = system: Malme-3M; experiment: cells; details: Homo sapiens, 72 h
Description: Antiproliferative activity against human MALME-3M cells after 72 hrs by ViaLight assay

[15] = system: NCI-H322M; experiment: cells; details: Homo sapiens, 72 h
Description: Antiproliferative activity against human NCI-H322M cells after 72 hrs by ViaLight assay

[16] = system: T47D; experiment: cells; details: Homo sapiens, 72 h
Description: Antiproliferative activity against human T47D cells after 72 hrs by ViaLight assay

[17] = system: UO-31; experiment: cells; details: Homo sapiens, UO-31, 72 h
Description: Antiproliferative activity against human UO31 cells after 72 hrs by ViaLight assay

[18] = system: HEK293; experiment: Antiproliferative activity against human HEK293 cells after 48 hrs by MTS reduction assay; type: cell-based; details: HEK293, 48 h
[19] = system: RXF 393; experiment: cells; details: Homo sapiens, RXF 393, 72 h
Description: Antiproliferative activity against human RFX393 cells after 72 hrs by ViaLight assay

[20] = system: TK-10; experiment: cells; details: Homo sapiens, TK-10, 72 h
Description: Antiproliferative activity against human TK10 cells after 72 hrs by ViaLight assay

[21] = cells; details: Homo sapiens, RPMI8266, 72 h
Description: Antiproliferative activity against human RPMI8266 cells after 72 hrs by ViaLight assay

[22] = system: A498; experiment: cells; details: Homo sapiens, A498, 72 h
Description: Antiproliferative activity against human A498 cells after 72 hrs by ViaLight assay

[23] = system: U-251; experiment: cells; details: Homo sapiens, U-251, 72 h
Description: Antiproliferative activity against human U251 cells after 72 hrs by ViaLight assay

[24] = system: SF-295; experiment: cells; details: Homo sapiens, SF-295, 72 h
Description: Antiproliferative activity against human SF295 cells after 72 hrs by ViaLight assay

[25] = system: M14; experiment: cells; details: Homo sapiens, M14, 72 h
Description: Antiproliferative activity against human M14 cells after 72 hrs by ViaLight assay

[26] = system: SR; experiment: cells; details: Homo sapiens, 72 h
Description: Antiproliferative activity against human SR cells after 72 hrs by ViaLight assay

[27] = system: UACC-62; experiment: cells; details: Homo sapiens, UACC-62, 72 h
Description: Antiproliferative activity against human UACC62 cells after 72 hrs by ViaLight assay

[28] = system: PC-3; experiment: cells; details: Homo sapiens, PC-3, 72 h
Description: Antiproliferative activity against human PC3 cells after 72 hrs by ViaLight assay

[29] = system: MOLT-4; experiment: cells; details: Homo sapiens, MOLT-4, 72 h
Description: Antiproliferative activity against human MOLT4 cells after 72 hrs by ViaLight assay

[30] = system: IGROV-1; experiment: cells; details: Homo sapiens, IGROV-1, 72 h
Description: Antiproliferative activity against human IGROV1 cells after 72 hrs by ViaLight assay

With `CC[C@H](CO)Nc1nc(NCc2ccccc2)c2ncn(C(C)C)c2n1` [SELICICLIB] the GI50 [1] was 5.01 µM, the GI50 ([1]; read-out: pGI50 (converted)) was 5.01 µM and the GI50 [2] was 39.8 µM. It also gave a GI50 ([2]; read-out: pGI50 (converted)) of 12.6 µM, a TGI ([2]; read-out: pTGI) of 12.6 µM and a GI50 [3] of 50.1 µM. The GI50 ([3]; read-out: pGI50 (converted)) was 50.1 µM, the GI50 [4] was 6.3 µM and the GI50 ([4]; read-out: pGI50 (converted)) was 12.6 µM. It also gave a GI50 [5] of 12.6 µM, a GI50 ([5]; read-out: pGI50 (converted)) of 12.6 µM and a GI50 [6] of 25.1 µM. For the same compound, the GI50 [7] was 12.6 µM, the GI50 ([7]; read-out: pGI50 (converted)) was 20 µM and the TGI ([7]; read-out: pTGI) was 50.1 µM. For the same compound, the GI50 [8] was 12.6 µM, the GI50 ([8]; read-out: pGI50 (converted)) was 50.1 µM and the GI50 [9] was 12.6 µM. The TGI [9] was 31.6 µM, the GI50 ([9]; read-out: pGI50 (converted)) was 50.1 µM and the GI50 ([10]; read-out: pGI50 (converted)) was 12.6 µM. For the same compound, the TGI ([10]; read-out: pTGI) was 31.6 µM, the GI50 [11] was 12.6 µM and the GI50 ([11]; read-out: pGI50 (converted)) was 25.1 µM. The GI50 [12] was 31.6 µM, the GI50 ([12]; read-out: pGI50 (converted)) was 31.6 µM and the TGI ([12]; read-out: pTGI) was 63.1 µM. The GI50 [13] was 19.9 µM, the GI50 ([13]; read-out: pGI50 (converted)) was 20 µM and the GI50 [14] was 19.9 µM. The TGI [14] was 50.1 µM, the GI50 ([14]; read-out: pGI50 (converted)) was 25.1 µM and the GI50 [15] was 31.6 µM. The GI50 ([15]; read-out: pGI50 (converted)) was 31.6 µM, the GI50 [16] was 16.8 µM and the GI50 ([16]; read-out: pGI50 (converted)) was 39.8 µM. It also gave a GI50 [17] of 12.6 µM, a GI50 ([17]; read-out: pGI50 (converted)) of 63.1 µM and a TGI ([17]; read-out: pTGI) of 63.1 µM. It also gave an IC50 [18] of 48.9 µM, a GI50 [19] of 5 µM and a GI50 ([19]; read-out: pGI50 (converted)) of 6.31 µM. For the same compound, the GI50 [20] was 63.1 µM, the GI50 ([20]; read-out: pGI50 (converted)) was 5.01 µM and the GI50 [21] was 25.1 µM. It also gave a GI50 ([21]; read-out: pGI50 (converted)) of 25.1 µM, a GI50 [22] of 50.1 µM and a GI50 ([22]; read-out: pGI50 (converted)) of 25.1 µM. It also gave a GI50 [23] of 50.1 µM, a GI50 ([23]; read-out: pGI50 (converted)) of 12.6 µM and a GI50 [24] of 25.1 µM. The GI50 ([24]; read-out: pGI50 (converted)) was 25.1 µM, the GI50 [25] was 25.1 µM and the GI50 ([25]; read-out: pGI50 (converted)) was 12.6 µM. It also gave a TGI ([25]; read-out: pTGI) of 50.1 µM, a GI50 [26] of 5.01 µM and a GI50 ([26]; read-out: pGI50 (converted)) of 5.01 µM. The GI50 [27] was 7.9 µM, the TGI [27] was 31.6 µM and the GI50 [28] was 19.9 µM. For the same compound, the TGI [28] was 63.1 µM, the GI50 ([28]; read-out: pGI50 (converted)) was 12.6 µM and the GI50 [29] was 25.1 µM. It also gave a GI50 ([29]; read-out: pGI50 (converted)) of 25.1 µM, a GI50 [30] of 6.3 µM and a GI50 ([30]; read-out: pGI50 (converted)) of 6.31 µM.
